Assay [1] has as its system N2a cells. The experiment in a line: Western blot of autophagy marker LC3-II in N2a cells. Type of assay: cell-based, mouse. The conditions noted are these: N2a, oxindole alkaloids, 12 hours. As to the method:
Native and denatured PAGE and Western blotting analysis. Samples to be run under denaturing conditions were lysed with RIPA lysis buffer (150 mM NaCl, 50 mM Tris-HCl, 0.35% sodium deoxycholate, 1 mM EDTA, 1% NP40, 1 mM PMSF, 5 μg/ml aprotinin, 5 μg/ml leupeptin). Samples for native gels were lysed with detergent-free lysis buffer (50 mM Tris/HCl pH 7.4, 175 mM NaCl, 5 mM EDTA pH 8.0, 1 mM PMSF, 5 μg/ml aprotinin, 5 μg/ml leupeptin), and sheared 5 times through a 28-gauge needle followed by 2 times of sonication for 5 seconds according to previously described protocol. For denaturing, SDS-PAGE was performed using Tris-Glycine SDS running buffer and SDS sample buffer, and for native conditions, native-PAGE was run with detergent-free Tris-Glycine running buffer (BN2007, Invitrogen) and 4× native sample buffer (BN2003, Invitrogen) on a pre-casted native PAGE gel (BN1002BOX, Invitrogen). The proteins on the gels were then transferred to PVDF membrane (RPN303F, GE Healthcare) and processed for immunoblotting. Membranes were blocked with 5% non-fat milk and probed with the appropriate primary and secondary antibodies. The desired bands were visualized using the ECL kit (32106, Pierce). The band density was quantified using the ImageJ program and normalized to that of the control group.
In order to confirm the neuronal autophagy inducing activity of Cory B (its chemical structure is shown in FIG. 1A), mouse neuroblastoma N2a, rat phenochromocytoma PC12 and human neurobastoma SH-SY5Y are treated with different concentrations of Cory B for 24 hours and cell lysates are subjected to western blotting analysis of LC3-II expression which is an autophagy-specific marker.
To confirm that enhancement of autophagy markers by Cory B is due to induction of autophagy rather than blockage of autophagosome maturation, N2a cells are treated with 25 μM Cory B or 30 μM lysosome inhibitor CQ together with Cory B for 12 hours. Cell lysates are subject to western blot analysis. Data are presented as the mean±SEM from 3 independent experiments (***p<0.001, one-way ANOVA for multiple comparison and Tukey's test as post hoc test). Both LC3-II levels and the number of GFP-LC3 puncta in the Cory B and CQ co-treatment group are much higher than in the CQ-alone treatment group (FIG. 2A-D). Meanwhile, Cory B induces GFP-LC3 puncta formation is abolished by treatment of 5 mM autophagy inhibitor 3-MA for 24 hours (FIG. 2C, D). Cells were fixed in 4% paraformaldehyde and analyzed under a confocal microscope. Data are presented as the mean±SEM of one representative experiment from three independent experiments. (***p<0.001, one-way ANOVA for multiple comparison and Tukey's test as post hoc test). […] Thus, Cory B is indeed an autophagy inducer in neuronal cells.
To compare the activities of oxindole alkaloids on autophagy induction, LC3II expression levels in N2a cells after treatment with Corynoxine B (Cory B) (FIG. 8A), Corynoxine (Cory) (FIG. 8B), Rhynchophylline (Rhy) (FIG. 8C) and Isorhynchophylline (IsoRhy) for 12 hours are examined.
In order to examine the pro-autophagic activities of the synthesized Cory B analogues, neuroblastoma 2a, a neuronal cell line, are treated with various concentrations of the analogues for 12 hrs. The cells are then harvested and lysed with RIPA buffer (150 mM NaCl, 50 mM Tris-HCl pH 7.4, 0.35% sodium deoxycholate, 1 mM EDTA, 1% NP40, 1 mM PMSF, 5 μg/ml aprotinin, 5 μg/ml leupeptin). The sample are lysed on ice with occasional vortex for 30 min, and then centrifuged at 14,000 rpm for 15 min at 4° C. The supernatant are collected and denatured at 95° C. in sample buffer for 5 min. The denatured samples are then separated on 15% SDS-PAGE gels and transferred to PVDF membrane. Membranes are then blocked with 5% non-fat milk and probed with appropriate primary and secondary antibodies. The protein signals of LC3II, marker protein of autophagy, are finally visualized with ECL kit and the protein bands density are quantified by ImageJ program. […]
Background: A western blot detects proteins with antibodies after separation by electrophoresis.

In assay [2] the test system is N2a Swedish APP cells. The experiment in a line: APP reduction in N2a Swedish APP cells (western blot). Format: cell-based, mouse. The conditions noted are these: different concentrations, with or without CQ and 3MA. As to the method: N2a Swedish APP cells are incubated with different concentration of Cory and Cory B in the presence or absence of CQ and 3MA. […] Tg2567 APP mice, 3 months old JNPL P301 Tau mice and WT mice intraperitoneally are administrated with 20 mg/kg/d CoryB.

Each structure is given as a SMILES string.

Take `CC[C@H]1CN2CC[C@@]3(C(=O)Nc4ccccc43)[C@@H]2C[C@@H]1/C(=C\OC)C(=O)OC` [IsoRhy, Isorhynchophylline, reference compound]: in assay [1], the “autophagy induction (LC3II expression level)” value (“autophagy induction” for short) is recorded as “did not show any activity on autophagy induction”.
In the case of `CC[C@@H]1CN2CC[C@@]3(C(=O)Nc4ccccc43)C2C[C@@H]1C(=COC)C(=O)OC` (stereo partly shown) [Cory, corynoxine], the “autophagy induction” value in assay [1] was “significantly activate autophagy”. The “full length and CTF APP” value in assay [2] was “dose-dependently reduce both full length and CTF APP”.
Take `CC[C@H]1CN2CC[C@]3(C(=O)Nc4ccccc43)[C@@H]2C[C@@H]1/C(=C\OC)C(=O)OC` [Rhy, Rhynchophylline, reference compound]: the “autophagy induction” value in assay [1] is reported as “did not show any activity on autophagy induction”.
